Experimental data published in US12180198B2, “Ribocil C antibiotics effective for Gram-negative pathogens” (THE BOARD OF TRUSTEES OF THE UNIVERSITY OF ILLINOIS, priority 2018, dated 2024).
Converted amounts (≈) assume the structure as drawn. Structures can show the parent of a compound that is named as a salt. Where two headings read alike, the source gives them in different places.

Legend:
Assay type in all cases: cell-based
H. sapiens IMR-90 = assay: Cell viability, Alamar Blue
Protocol: Cell culture. IMR90 cells were obtained from ATCC. IMR90 cells were grown in EMEM with 10% fetal bovine serum (Gemini Benchmark, Cat #100-106), 100 U/mL penicillin, and 100 μg/mL streptomycin. All cells were cultured at 37° C. in a 5% CO2 environment. Media was prepared by the University of Illinois School of Chemical Sciences Cell Media Facility. Sex and age of cell lines: IMR90 ([…]).
Cell viability. Cells seeded (IMR90: 5,000 cells/well) a 96-well plate (Greiner Bio-One, Cat #655180) and were allowed to attach overnight. Cells were treated with investigational compounds in DMSO (30 μM, 1% DMSO final, 100 μL/well). Raptinal (100 μM) was used as a dead control. After 24 h post-treatment, media was exchanged with compound-free media. After 72 h post-treatment, cell viability was assessed using the Alamar Blue method. Stock Alamar Blue solution [10 μL, 440 μM resazurin (Sigma-Aldrich, Cat #R7017) in sterile 1×PBS] was added to each well, and plate was incubated […]. Conversion of Alamar Blue was measured with plate reader (SpectraMax M3, Molecular Devices) by fluorescence (ex 555 nm, em 585 nm, cutoff 570 nm, autogain). Percent death was determined by normalizing to DMSO-treated cells and raptinal-treated cells.

K. pneumoniae BAA-2146 = assay: Bioactivity against exemplary strains of bacteria (Table 5A); settings: Strain 4: K. pneumoniae BAA-2146
K. pneumoniae BAA-2473 = assay: MIC, micro-dilution broth method; settings: Klebsiella pneumoniae, BAA2473
Protocol: (§1) Compounds were evaluated against a panel of Gram-positive and Gram-negative organisms. MIC values were determined using the micro-dilution broth method as outlined by the Clinical and Laboratory Standards Institute (clsi.org/) and are listed in […]. All experiments were performed in biological triplicate.
(§2) Antimicrobial susceptibility tests. Susceptibility testing was performed in biological triplicate, using the micro-dilution broth method as outlined by the Clinical and Laboratory Standards Institute. Bacteria were cultured with cation-adjusted Muller-Hinton broth (Sigma-Aldrich, Cat #90922) in round-bottom 96-well plates (Corning, Cat #3788). Human serum (pooled gender, 0.2 μm filtered) was purchased from BioIVT (Hicksville, NY).

E. coli BAA-2340 = assay: MIC, micro-dilution broth method; settings: Escherichia coli, BAA2340
Protocol: as §1, §2

E. coli BAA-2471 = assay: MIC, micro-dilution broth method; settings: Escherichia coli, BAA2471
Protocol: as §1, §2

A. baumannii W41979 = assay: MIC, micro-dilution broth method; settings: Acinetobacter baumannii
Protocol: as §1, §2

E. cloacae S28901.1 = assay: MIC, micro-dilution broth method; settings: Enterobacter cloacae
Protocol: as §1, §2

A. baumannii M13100 = assay: MIC, micro-dilution broth method; settings: Acinetobacter baumannii
Protocol: as §1, §2

K. pneumoniae BAA-2342 = assay: MIC, micro-dilution broth method; settings: Klebsiella pneumoniae, BAA2342
Protocol: as §1, §2

A. baumannii WO22 = assay: MIC, micro-dilution broth method; settings: Acinetobacter baumannii
Protocol: as §1, §2

E. coli ΔrfaC JW3596 = assay: MIC, micro-dilution broth method; settings: Escherichia coli
Protocol: as §1, §2

A. baumannii KB304 = assay: MIC, micro-dilution broth method; settings: Acinetobacter baumannii
Protocol: as §1, §2

A. baumannii KB357 = assay: MIC, micro-dilution broth method; settings: Acinetobacter baumannii
Protocol: as §1, §2

E. cloacae BAA-2341 = assay: MIC, micro-dilution broth method; settings: Enterobacter cloacae, BAA2341
Protocol: as §1, §2

E. coli MG1655 = assay: MIC, micro-dilution broth method; settings: Escherichia coli
Protocol: as §1, §2

E. cloacae BAA-2468 = assay: MIC, micro-dilution broth method; settings: Enterobacter cloacae, BAA2468
Protocol: as §1, §2

E. coli ΔtolC JW5503 = assay: MIC, micro-dilution broth method; settings: Escherichia coli
Protocol: as §1, §2

K. pneumoniae AR-0347 = assay: MIC, micro-dilution broth method; settings: Klebsiella pneumoniae, AR0347
Protocol: as §1, §2

A. baumannii KB343 = assay: MIC, micro-dilution broth method; settings: Acinetobacter baumannii
Protocol: as §1, §2

E. coli AR-0493 = assay: MIC, micro-dilution broth method; settings: Escherichia coli, AR0493
Protocol: as §1, §2

K. pneumoniae BAA-2470 = assay: MIC, micro-dilution broth method; settings: Klebsiella pneumoniae, BAA2470
Protocol: as §1, §2

E. coli AR-0346 = assay: MIC, micro-dilution broth method; settings: Escherichia coli, AR0346
Protocol: as §1, §2

K. pneumoniae M14723 = assay: MIC, micro-dilution broth method; settings: Klebsiella pneumoniae
Protocol: as §1, §2

K. pneumoniae BAA-1705 = assay: MIC, micro-dilution broth method; settings: Klebsiella pneumoniae, BAA1705
Protocol: as §1, §2

E. coli BAA-2469 [1] = assay: MIC, micro-dilution broth method; settings: Escherichia coli, BAA2469
Protocol: as §1, §2

S. aureus ATCC 29213 = assay: MIC, micro-dilution broth method; settings: for increase in MIC in the presence of serum: S. aureus ATCC 29213, +50% human serum vs none
Protocol: as §1, §2

E. cloacae ATCC 29893 = assay: MIC, micro-dilution broth method; settings: Enterobacter cloacae, ATCC29893
Protocol: as §1, §2

E. coli BAA-2469 [2] = assay: Bioactivity against exemplary strains of bacteria (Table 5A); design: unit not given here; settings: Strain 2: E. coli BAA-2469
[3] = system: E. coli strains with intact outer membranes; assay: MIC, micro-dilution broth method (text summary); settings: Escherichia coli
Protocol: FIG. 2. Antimicrobial activity of Debio-1452 and derivatives. MIC values were determined using the micro-dilution broth method as outlined by the Clinical and Laboratory Standards Institute (clsi.org/). All experiments were performed in biological triplicate.
as §2

A. baumannii BAA-2093 = assay: Bioactivity against exemplary strains of bacteria (Table 5A); settings: Strain 3: A. baumannii BAA-2093

For `Cc1c(CN(C)C(=O)/C=C/c2cnc3c(c2)CCC(=O)N3)oc2ccccc12` [Debio-1452, (E)-N-methyl-N-((3-methylbenzofuran-2-yl)methyl)-3-(7-oxo-5,6,7,8-tetrahydro-1,8-naphthyridin-3-yl)acrylamide, reference compound], the inhibition at 30 µM (H. sapiens IMR-90; H. sapiens IMR-90, 30 μM, 24 h exposure, viability at 72 h, read-out: % inhibition at 30 μM) was 16%, the Bioactivity (K. pneumoniae BAA-2146) was over 32 and the MIC (K. pneumoniae BAA-2473; K. pneumoniae BAA-2473, read-out: MIC) was over 32 µg/mL. The MIC (E. coli BAA-2340; E. coli BAA-2340, read-out: MIC) was over 32 µg/mL, the MIC (E. coli BAA-2471; E. coli BAA-2471, read-out: MIC) was 8 µg/mL (≈ 21.3 µM) and the MIC (A. baumannii W41979; A. baumannii W41979, read-out: MIC) was over 32 µg/mL. For the same compound, the MIC (E. cloacae S28901.1; E. cloacae S28901.1, read-out: MIC) was over 32 µg/mL, the MIC (A. baumannii M13100; A. baumannii M13100, read-out: MIC) was over 32 µg/mL and the MIC (K. pneumoniae BAA-2342; K. pneumoniae BAA-2342, read-out: MIC) was over 32 µg/mL. It also gave an MIC (A. baumannii WO22; A. baumannii WO22, read-out: MIC) of over 32 µg/mL, an MIC (E. coli ΔrfaC JW3596) of 0.5 µg/mL (≈ 1.33 µM) and an MIC (A. baumannii KB304; A. baumannii KB304, read-out: MIC) of over 32 µg/mL. For the same compound, the MIC (A. baumannii KB357; A. baumannii KB357, read-out: MIC) was over 32 µg/mL, the MIC (E. cloacae BAA-2341; E. cloacae BAA-2341, read-out: MIC) was over 32 µg/mL and the MIC (E. coli MG1655; E. coli MG1655, read-out: MIC) was over 32 µg/mL. For the same compound, the MIC (E. cloacae BAA-2468; E. cloacae BAA-2468, read-out: MIC) was over 32 µg/mL, the MIC (E. coli ΔtolC JW5503) was 0.031 µg/mL (≈ 0.0826 µM) and the MIC (K. pneumoniae AR-0347; K. pneumoniae AR-0347, read-out: MIC) was over 32 µg/mL. For the same compound, the MIC (A. baumannii KB343; A. baumannii KB343, read-out: MIC) was over 32 µg/mL, the MIC (E. coli AR-0493; E. coli AR-0493, read-out: MIC) was over 32 µg/mL and the MIC (K. pneumoniae BAA-2470; K. pneumoniae BAA-2470, read-out: MIC) was 8 µg/mL (≈ 21.3 µM). For the same compound, the MIC (E. coli AR-0346; E. coli AR-0346, read-out: MIC) was over 32 µg/mL, the MIC (K. pneumoniae M14723; K. pneumoniae M14723, read-out: MIC) was over 32 µg/mL and the MIC (K. pneumoniae BAA-1705; K. pneumoniae BAA-1705, read-out: MIC) was over 32 µg/mL. The MIC (E. coli BAA-2469 [1]; E. coli BAA-2469, read-out: MIC) was 4 µg/mL (≈ 10.7 µM), the MIC (S. aureus ATCC 29213; S. aureus ATCC 29213) was 0.008 to 0.016 µg/mL and the “increase in MIC in the presence of serum” value (S. aureus ATCC 29213) was 8 fold. The MIC (S. aureus ATCC 29213; Staphylococcus aureus, ATCC29213, S. aureus ATCC 29213 (+50% Human serum), read-out: MIC) was 0.125 µg/mL (≈ 0.333 µM), the MIC (S. aureus ATCC 29213; Staphylococcus aureus, ATCC29213, S. aureus ATCC 29213, read-out: MIC) was 0.008 µg/mL (≈ 0.0213 µM) and the MIC (E. cloacae ATCC 29893; E. cloacae ATCC 29893, read-out: MIC) was over 32 µg/mL. For the same compound, the Bioactivity (E. coli BAA-2469 [2]) was over 32, the MIC ([3]; E. coli strains with intact outer membranes, read-out: MIC) was over 32 µg/mL and the Bioactivity (A. baumannii BAA-2093) was 16.

In the case of `Cc1c(CN(C)C(=O)/C=C/c2cnc3c(c2)CC(N)C(=O)N3)oc2ccccc12` (stereo not drawn) [Debio-1452-NH3, (E)-3-(6-amino-7-oxo-5,6,7,8-tetrahydro-1,8-naphthyridin-3-yl)-N-methyl-N-((3-methylbenzofuran-2-yl)methyl)acrylamide hydrochloride], the “toxicity to mammalian cells grown in culture (in words)” value (H. sapiens IMR-90; 24 hour exposures) was “little toxicity”, the inhibition at 30 µM (H. sapiens IMR-90; Homo sapiens, IMR-90, read-out: % inhibition at 30 μM) was 30% and the Bioactivity (K. pneumoniae BAA-2146) was 32. It also gave an MIC (K. pneumoniae BAA-2473) of 16 µg/mL, an MIC (E. coli BAA-2340) of 4 µg/mL and an MIC (E. coli BAA-2471) of 4 µg/mL. It also gave an MIC (A. baumannii W41979; W41979) of 4 µg/mL, an MIC (E. cloacae S28901.1; S28901.1) of 16 µg/mL and an MIC (A. baumannii M13100; M13100) of 16 µg/mL. It also gave an MIC (K. pneumoniae BAA-2342) of 16 µg/mL, an MIC (A. baumannii WO22; WO22) of 64 µg/mL and an MIC (E. coli ΔrfaC JW3596) of 0.25 µg/mL. It also gave an MIC (A. baumannii KB304; KB304) of 64 µg/mL, an MIC (A. baumannii KB357; KB357) of 64 µg/mL and an MIC (E. cloacae BAA-2341) of 8 µg/mL. The MIC (E. coli MG1655; MG1655) was 4 µg/mL, the MIC (E. cloacae BAA-2468) was 8 µg/mL and the MIC (E. coli ΔtolC JW5503) was 0.062 µg/mL. It also gave an MIC (K. pneumoniae AR-0347) of 16 µg/mL, an MIC (A. baumannii KB343; KB343) of 64 µg/mL and an MIC (E. coli AR-0493) of 4 µg/mL. It also gave an MIC (K. pneumoniae BAA-2470) of 4 µg/mL, an MIC (E. coli AR-0346) of 8 µg/mL and an MIC (K. pneumoniae M14723; M14723) of 16 µg/mL. For the same compound, the MIC (K. pneumoniae BAA-1705) was 8 µg/mL, the MIC (E. coli BAA-2469 [1]) was 2 µg/mL and the “increase in MIC in the presence of serum” value (S. aureus ATCC 29213) was 2 fold. For the same compound, the MIC (S. aureus ATCC 29213; Staphylococcus aureus, ATCC29213, S. aureus ATCC 29213) was 0.03 µg/mL, the MIC (S. aureus ATCC 29213; Staphylococcus aureus, ATCC29213, S. aureus ATCC 29213 (+50% Human serum)) was 0.062 µg/mL and the MIC (E. cloacae ATCC 29893) was 8 µg/mL. The Bioactivity (E. coli BAA-2469 [2]) was 4, the MIC [3] was 4 µg/mL and the Bioactivity (A. baumannii BAA-2093) was 4.
